Counter-ions that a name gives are not always drawn. Like-named read-outs stand apart in the source and are kept apart here.
Experiments:
[1] = tested on: TNF-α-induced NF-κB activity; test: Inhibition of TNF-α-activated NF-κB, luciferase reporter assay in HEK293 cells; format: cell-based, human; conditions: for inhibition at 50 µM: read-out: NF-κB assay % inhib.
Excerpt: To study the inhibition of tumor necrosis factor-alpha (TNF-α)-induced activation of nuclear factor-kappa B (NF-κB), human embryonic kidney 293 cells (HEK293) stably transfected with an NF-κB-responsive luciferase reporter construct (Cat. No. RC0014, Panomics, Fremont, CA, USA) were utilized, following previously described protocols (Kondratyuk et al. [2012]). This cell line incorporates a chromosomally integrated luciferase reporter, which produces luciferase enzyme upon NF-κB activation. The enzyme reacts with its substrate to produce a luminescent signal, detectable via luminometry. Cells were seeded at a density of 2 × 10^4 cells/mL in 96-well plates and cultured in Dulbecco’s Modified Eagle Medium (DMEM, Cat. No. D6429, Sigma-Aldrich, Saint Louis, MO, USA) supplemented with 10% fetal bovine serum (FBS, Cat. No. A5670701, Gibco™, Thermo Fisher Scientific, Waltham, MA, USA). The medium also contained 100 µg/mL streptomycin sulfate and 100 IU/mL penicillin G (Cat. No.15140 Gibco BRL, Grand Island, NY, USA). The cells were then treated with varying concentrations of the test sample and stimulated with recombinant human TNF-α (2 ng/mL, Cat. No. HZ-1014, Proteintech Group, Inc. Rosemont, IL, USA).
Following a 6-hour incubation, the cells were rinsed with phosphate buffer saline (PBS), lysed with 40 μL of 1X Reporter Lysis Buffer (Cat. No. E2661, Promega, Madison, WI, USA), and subjected to a freeze-thaw cycle (−80 °C/37 °C). Luminescence, generated by the luciferase reaction, was quantified using the Luc assay system (Cat. No. N1610, Promega, Madison, WI, USA) and a LUMIstar Galaxy luminometer (BMG, Offenburg, Germany).

[2] = tested on: human embryonic kidney 293 cells (HEK293); test: Cell survival in the NF-κB assay; format: cell-based
[3] = tested on: NO production in LPS-activated murine macrophage RAW 264.7 cells; test: cells; format: cell-based, mouse; conditions: for inhibition at 50 µM / IC50: Mus musculus; for inhibition at 50 µM: read-out: Nitrite assay % inhib.; for NO inhibitory activity: compared with positive control L-NMMA / within the series
Description: The inhibition of nitric oxide (NO) production in lipopolysaccharide (LPS)-stimulated murine macrophage RAW 264.7 cells was evaluated following previously described methods (Min et al. [2009]). RAW 264.7 cell line was purchased from ATCC (Cat. No. TIB-71, Manassas, VA, USA) and cultured in Dulbecco’s modified Eagle’s medium (DMEM, Cat. No. 12800-082, Invitrogen, Massachusetts, USA) supplemented with 10% heat-inactivated fetal bovine serum (FBS, Cat. No. 26140, Gibco BRL Co, Grand Island, NY, USA), 100× penicillin G and streptomycin (Cat. No.11074440001, Sigma-Aldrich, Saint Louis, MO, USA) and 2 mM L-glutamine (Cat. No. 25030, Gibco BRL Co, Grand Island, NY, USA). Cells were seeded at 10 × 10^5 cells per well in 96-well plates and incubated for 24 h at 37 °C in a humidified atmosphere containing 5% CO2.
(§1) Test compounds were dissolved in phenol red-free DMEM (Cat. No. 12-917 F, Lonza, Massachusetts, USA) and added to the cells as a pretreatment for 30 min. The cells were then exposed to LPS (1 µg/mL, Cat. No. L-2762, Sigma-Aldrich, Saint Louis, MO, USA) for 20 h. Nitric oxide levels were quantified using the Griess reagent, which consists of a 1:1 (v/v) mixture of 1% sulfanilamide (Cat.No. A13001, Alfa Aesar, Massachusetts, USA) in H3PO4 and N-(1-naphthyl)ethylenediamine dihydrochloride (Cat. No. 102397, MP Biomedicals, USA). A standard curve was generated using sodium nitrite (Cat. No. 44227, Alfa Aesar, Massachusetts, USA), and IC50 values were calculated using Table Curve 2D software (Version 4.07, AISN Software Inc., Richmond, VA, USA). Also, a sulforhodamine B (SRB, Cat. No. S9012, Sigma-Aldrich, Saint Louis, MO, USA) assay was performed to assess the cytotoxic effects of the test compounds on RAW 264.7 cells.

RAW 264.7 cells = test: SRB cytotoxicity / survival of RAW 264.7 cells in the nitrite assay; format: cell-based, mouse; conditions: for Nitrite assay % surv.: % survival at a concentration of 50 μM, RAW 264.7; for cytotoxicity in NO assay: RAW 264.7 cells
Description: as §1

[4] = as above; format: cell-based, mouse; conditions: mouse; cytotoxicity in RAW 264.7 cells, NO assay; read-out: cytotoxic IC50
Description: as §1

[5] = tested on: NO-production in LPS-stimulated RAW 264.7 cells; design: method as in Choudhari et al. [2013]; Park et al. [2019]; conditions: ref Choudhari et al. [2013], Park et al. [2019], read-out: NO-production IC50 (literature); cited from earlier work
[6] = Homo sapiens, HEK293, % inhibition at a concentration of 50 μM, TNF-α 2 ng/mL, 6 h
[7] = Homo sapiens, TNF-α-induced NF-κB luciferase, HEK293, read-out: NF-κB assay IC50
[8] = RAW264.7, read-out: Nitrite assay IC50
[9] = RAW264.7, LPS-activated RAW 264.7 cells, read-out: Nitrite assay IC50
[10] = Homo sapiens, HEK293, read-out: NF-κB assay IC50
[11] = % survival at a concentration of 50 μM
[12] = RAW264.7, % inhibition of NO at 50 μM, LPS 1 µg/mL, 20 h
[13] = acetate versus parent, from IC50

SMILES | inhibition at 50 µM [1, 6] | IC50 [1, 7] | NF-κB assay % surv. ([2]; human, 6 h, 50 µM) | inhibition at 50 µM ([3]; RAW264.7, 20 h) | IC50 [3, 8] | Nitrite assay % surv. (RAW 264.7 cells) | cytotoxicity in NO assay (RAW 264.7 cells) | other results
CC(=O)OC1C[C@H](O)CC2=CCC3C4CCC([C@@](C)(O)[C@H](O)C[C@@H]5COC(=O)[C@@]5(C)O)[C@@]4(C)CCC3[C@]21C (stereo partly shown) [Compound 6, perulactone C] | 56.1 ± 3.9% | 1.1 ± 0.48 µM | 36.5 ± 1.9% | 84.2 ± 3.7% | 11.8 ± 0.3 µM | 95.3 ± 11.0% | without significant cytotoxicity | –
CC1=C(C)C(=O)OC(C(C)(O)C2(O)CCC3(O)C4CC(O)C5(O)C(O)C(O)CC(=O)C5(C)C4CCC32C)C1 [Compound 1, (20S,22R)-3α,4β,5α,6β,14α,17β,20β-heptahydroxy-1-oxowitha-24-ene-26,22-olide] | 93.4 ± 1.2% | 0.01 ± 0.01 µM | 100 ± 24.5% | 82.4 ± 1.1% | 13.3 ± 0.2 µM | 100 ± 1.1% | without significant cytotoxicity | –
CC1=C(C)C(=O)OC([C@](C)(O)[C@]2(O)CC[C@@]3(O)C4C[C@H]5O[C@]56[C@@H](O)C=CC(=O)[C@]6(C)C4CC[C@]23C)C1 (stereo partly drawn) [Compound 3, 4β-hydroxywithanolide E] | 99.5 ± 0.1% | 0.04 ± 0.03 µM | 88.6 ± 10.1% | 99.2 ± 0.4% | 0.32 ± 0.02 µM | 50.1 ± 2.3% | – | IC50 at 20 h [4]: 14 µM; IC50 [5]: 0.9 µM
[H]/N=C(/NC)NCCC[C@H](N)C(=O)O [L-NMMA, L-N^G-Monomethyl arginine citrate, reference compound] | – | – | – | – | – | – | – | IC50 [3, 9]: 23.5 ± 3.4 µM
CC1=C(C)C(=O)OC([C@](C)(O)[C@]2(O)CC[C@@]3(O)C4C[C@@H](O)C5=CC=CC(=O)[C@]5(C)C4CC[C@]23C)C1 (stereo partly shown) [Compound 5, withaperuvin C] | 85 ± 4.4% | 5.6 ± 2.1 µM | 100.0 ± 8.0% | 99.2 ± 0.7% | 2.4 ± 0.2 µM | 79.3 ± 1.2% | without significant cytotoxicity | –
CC1=C(CO)CC(C(C)(O)C2(O)CCC3(O)C4CC(O)C5(O)CC=CC(=O)C5(C)C4CCC32C)OC1=O (stereo not shown) [Compound 7, phyperunolide B] | 41 ± 6.9% | – | 81.6 ± 8.4% | 7.4 ± 3.5% | – | 100.0 ± 14.1% | – | –
CC(=O)O[C@@H]1CC2C(CC[C@]3(C)[C@](O)([C@@](C)(O)C4CC(C)=C(C)C(=O)O4)CC[C@@]23O)[C@@]2(C)C(=O)C=CC=C12 (stereo partly shown) [Compound 5a, withaperuvin C acetate] | 78.3 ± 3% | 2.4 ± 1.7 µM | 47.0 ± 6.0% | 99 ± 0.3% | 1.8 ± 0.1 µM | 98.8 ± 1.4% | without significant cytotoxicity | –
CO[C@H]1CC(=O)[C@]2(C)C3CC[C@@]4(C)C(=C3C[C@H]3O[C@]32[C@H]1O)CC[C@@]4(O)[C@@](C)(O)C1CC(C)=C(C)C(=O)O1 (stereo partly shown) [Compound 4, physalactone] | – | – | – | – | – | 90.7 ± 5.0% | without significant cytotoxicity | inhibition at 50 µM ([1]; Homo sapiens, HEK293, 6 h): 66.7 ± 3.9%; IC50 [1, 10]: 11 ± 2.3 µM; NF-κB assay % surv. [2, 11]: 100.0 ± 16.6%; inhibition at 50 µM [3, 12]: 97.9 ± 2%; IC50 [3, 9]: 1.8 ± 0.17 µM
CC(=O)OC1C=CC(=O)C2(C)C3CCC4(C)C(O)(CCC4(O)C(C)(O)C4CC(C)=C(C)C(=O)O4)C3CC(Cl)C12O (stereo not shown) [Compound 2a] | 92.2 ± 0.6% | 1.1 ± 0.42 µM | 12.3 ± 7.58% | 99.2 ± 2.6% | 8.7 ± 0.6 µM | 93.2 ± 2.3% | without significant cytotoxicity | –
CC1=C(C)C(=O)OC(C(C)(O)C2(O)CC(O)C3(O)C4CC(O)C5(O)CC=CC(=O)C5(C)C4CCC32C)C1 (stereo not shown) [Compound 8, coagulin H] | 70.2 ± 8.1% | 8.9 ± 1.1 µM | 82.2 ± 3.9% | 67.1 ± 2.2% | 16.7 ± 0.4 µM | 100.0 ± 6.3% | – | –
CC(=O)O[C@H]1C=CC(=O)[C@]2(C)C3CC[C@]4(C)[C@](O)([C@@](C)(O)C5CC(C)=C(C)C(=O)O5)CC[C@@]4(O)C3C[C@H]3O[C@]132 (stereo partly shown) [Compound 3a] | 99.9 ± 0.9% | 0.47 ± 0.61 µM | 2.2 ± 2.6% | 99.2 ± 0.4% | 0.24 ± 0.01 µM | 38.9 ± 2.3% | – | NO inhibitory activity [3]: most active; IC50 at 20 h [4]: 2.1 µM
CC1=C(C)C(=O)OC(C(C)(O)C2(O)CCC3(O)C4CC(Cl)C5(O)C(O)C=CC(=O)C5(C)C4CCC32C)C1 [Compound 2, (20S,22R)-4β,5β,14α,17β,20α-pentahydroxy-6α-chloro-1-oxowitha-2,24-diene-22,26-olide] | 97.4 ± 1.1% | 0.06 ± 0.02 µM | 100.0 ± 14.4% | 99.4 ± 0.1% | 3.3 ± 0.3 µM | 96.1 ± 3.2% | without significant cytotoxicity | –
Cc1ccc(S(=O)(=O)N[C@@H](Cc2ccccc2)C(=O)CCl)cc1 [TPCK, Nα-tosyl-L-phenylalanine chloromethyl ketone, reference compound] | – | – | – | – | – | – | – | IC50 ([1]; TNF-α-induced NF-κB luciferase, HEK293, read-out: NF-κB assay IC50): 7.08 ± 1.72 µM
CC(=O)OC1C[C@H](OC(C)=O)CC2=CCC3C4CCC([C@@](C)(O)[C@@H](C[C@@H]5COC(=O)[C@@]5(C)O)OC(C)=O)[C@@]4(C)CCC3[C@]21C (stereo partly shown) [Compound 6a] | 77.4 ± 7.3% | 10.5 ± 2.55 µM | 21.8 ± 0.8% | 20.6 ± 3% | – | 92.0 ± 5.0% | – | NF-κB activity diminished relative to parent compound [1, 13]: about 10 fold
CO[C@H]1CC(=O)[C@]2(C)C3CC[C@@]4(C)C(=C3C[C@H]3O[C@]32[C@H]1OC(C)=O)CC[C@@]4(O)[C@@](C)(O)C1CC(C)=C(C)C(=O)O1 (stereo partly shown) [Compound 4a] | – | – | – | – | – | 40.3 ± 4.1% | – | inhibition at 50 µM ([1]; Homo sapiens, HEK293, 6 h): 88 ± 1.3%; IC50 [1, 10]: 0.33 ± 0.1 µM; NF-κB activity enhanced relative to parent compound [1, 13]: over 30 fold; NF-κB assay % surv. [2, 11]: 77.7 ± 5.3%; inhibition at 50 µM [3, 12]: 99.8 ± 0.3%; IC50 [3, 9]: 0.24 ± 0.01 µM; NO inhibitory activity [3]: most active

Reference: publication PMC12035931, “Biologically active withanolides from Physalis peruviana” (Pharmaceutical Biology, 2025)
